Melting point data for 28 compounds are collected here from patent US6544985B2, “Dihydro-benzo [b][1,4]diazepin-2-one derivatives” (Hoffman-La Roche Inc., priority 2001, dated 2003).

Broadly, the melting point is the temperature, or range, at which the solid turns liquid. In turn, `CC(C)CN(C)c1cc2c(cc1Cl)NC(=O)CC(c1cccc(-n3nncc3CN3CCCC3)c1)=N2` [Example 126, 8-Chloro-7-(isobutyl-methyl-amino)-4-[3-(5-pyrrolidin-1-ylmethyl-[1,2,3]triazol-1-yl)-phenyl]-1,3-dihydro-benzo[b][1,4]diazepin-2-one] came in with a melting point of 190 °C.
As to `CC(C)CN(C)c1cc2c(cc1Cl)NC(=O)CC(c1cccc(-n3nncc3CN(C)C)c1)=N2` [Example 128, 8-Chloro-4-[3-(5-dimethylaminomethyl-[1,2,3]triazol-1-yl)-phenyl]-7-(isobutyl-methyl-amino)-1,3-dihydro-benzo[b][1,4]diazepin-2-one], the melting point was found to be 199 °C.
In the case of `CC(C)N(C)c1cc2c(cc1Cl)NC(=O)CC(c1cccc(-n3nncc3CN3CCC3)c1)=N2` [Example 129, 4-[3-(5-Azetidin-1-ylmethyl-[1,2,3]triazol-1-yl)-phenyl]-8-chloro-7-(isopropyl-methyl-amino)-1,3dihydro-benzo[b][1,4]diazepin-2-one] it was 177 °C; in that of `CC(C)CN(C)c1cc2c(cc1Cl)NC(=O)CC(c1cccc(-n3nncc3CN3CCC3)c1)=N2` [Example 130, 4-[3-(5-Azetidin-1-ylmethyl-[1,2,3]triazol-1-yl)-phenyl]-8-chloro-7-(isobutyl-methyl-amino)-1,3-dihydro-benzo[b][1,4]diazepin-2-one], 191 °C; in that of `Cc1cc2c(cc1N(C)CC(C)C)N=C(c1cccc(-n3nncc3CO)c1)CC(=O)N2` [Example 132, 4-[3-(5-Hydroxymethyl-[1,2,3]triazol-1-yl)-phenyl]-7-(isobutyl-methyl-amino)-8-methyl-1,3-dihydro-benzo[b][1,4]diazepin-2-one], 198 °C.
As for `Cc1cc(-c2cccc(C3=Nc4cc(N(C)CC(C)C)c(C)cc4NC(=O)C3)c2)on1` [Example 134, 7-(Isobutyl-methyl-amino)-8-methyl-4-[3-(3-methyl-isoxazol-5-yl)-phenyl]-1,3-dihydro-benzo[b][1,4]diazepin-2-one], the figure is 187 °C; as for `Cc1cc(-c2cccc(C3=Nc4cc(N5CCCC5)c(C)cc4NC(=O)C3)c2)on1` [Example 135, 8-Methyl-4-[3-(3-methyl-isoxazol-5-yl)-phenyl]-7-pyrrolidin-1-yl-1,3-dihydro-benzo[b][1,4]diazepin-2-one], 211 °C; as for `CC(C)CN(C)c1cc2c(cc1C(F)(F)F)NC(=O)CC(c1cccc(-n3nncc3CN(C)C)c1)=N2` [Example 136, 4-[3-(5-Dimethylaminomethyl-[1,2,3]triazol-1-yl)-phenyl]-7-(isobutyl-methyl-amino)-8-trifluoromethyl-1,3-dihydro-benzo[b][1,4]diazepin-2-one], 182 °C.
Compound `CC(C)CN(C)c1cc2c(cc1C#N)NC(=O)CC(c1cccc(-n3nncc3CN3CCCC3)c1)=N2` [Example 137, 8-(Isobutyl-methyl-amino)-4-oxo-2-[3-(5-pyrrolidin-1-ylmethyl-[1,2,3]triazol-1-yl)-phenyl]-4,5-dihydro-3H-benzo[b][1,4]diazepine-7-carbonitrile] came in with a melting point of 174 °C.
The compound `Cc1cc2c(cc1N(C)CC(C)C)N=C(c1cccc(-n3nncc3CN3CCCC3)c1)CC(=O)N2` [Example 139, 7-(Isobutyl-methyl-amino)-8-methyl-4-[3-(5-pyrrolidin-1-ylmethyl-[1,2,3]triazol-1-yl)-phenyl]-1,3-dihydro-benzo[b][1,4]diazepin-2-one] had a melting point of 177 °C.
In the case of `CC(C)CN(C)c1cc2c(cc1C(F)(F)F)NC(=O)CC(c1cccc(-n3nncc3CN(C)C(C)C)c1)=N2` [Example 141, 7-(Isobutyl-methyl-amino)-4-(3-{5-[(isopropyl-methyl-amino)-methyl]-[1,2,3]triazol-1yl}-phenyl)-8-trifluoromethyl-1,3-dihydro-benzo[b][1,4]diazepin-2-one] it was 157 °C.
In the case of `CC(C)N(C)c1cc2c(cc1Cl)NC(=O)CC(c1cccc(-n3nncc3CNC3CCCC3)c1)=N2` [Example 142, 8-Chloro-4-[3-(5-cyclopentylaminomethyl-[1,2,3]triazol-1-yl)-phenyl]-7-(isopropyl-methyl-amino)-1,3-dihydro-benzo[b][1,4]diazepin-2-one], the melting point was 174 °C.
In the case of `Cc1cc2c(cc1N(C)CC(C)C)N=C(c1cccc(-n3nncc3CNCC3CC3)c1)CC(=O)N2` [Example 143, 4-(3-{5-[(Cyclopropylmethyl-amino)-methyl]-[1,2,3]triazol-1-yl}-phenyl)-7-(isobutyl-methyl-amino)-8-methyl-1,3-dihydro-benzo[b][1,4]diazepin-2-one] it was 184 °C; in that of `CC(C)CN(C)c1cc2c(cc1Cl)NC(=O)CC(c1cccc(-n3nncc3CN3CCCCC3)c1)=N2` [Example 144, 8-Chloro-7-(isobutyl-methyl-amino)-4-[3-(5-piperidin-1-ylmethyl-[1,2,3]triazol-1-yl)-phenyl]-1,3-dihydro-benzo[b][1,4]diazepin-2-one], 169 °C; in that of `CC(C)NCc1cnnn1-c1cccc(C2=Nc3cc(N(C)C(C)C)c(Cl)cc3NC(=O)C2)c1` [Example 145, 8-Chloro-4-{3-[5-(isopropylamino-methyl)-[1,2,3]triazol-1-yl]-phenyl}-7-(isopropyl-methyl-amino)-1,3-dihydro-benzo[b][1,4]diazepin-2-one], 208 °C.
Take `COCCN(C)Cc1cnnn1-c1cccc(C2=Nc3cc(N(C)C(C)C)c(Cl)cc3NC(=O)C2)c1` [Example 146, 8-Chloro-7-(isopropyl-methyl-amino)-4-[3-(5-{[(2-methoxy-ethyl)-methyl-amino]-methyl}-[1,2,3]triazol-1-yl)-phenyl]-1,3-dihydro-benzo[b][1,4]diazepin-2-one]: the melting point came out at 119 °C.
In the case of `CC(C)N(C)Cc1cnnn1-c1cccc(C2=Nc3cc(N(C)C(C)C)c(Cl)cc3NC(=O)C2)c1` [Example 148, 8-Chloro-7-(isopropyl-methyl-amino)-4-(3-{5-[(isopropyl-methyl-amino)-methyl]-[1,2,3]triazol-1-yl}-phenyl)-1,3-dihydro-benzo[b][1,4]diazepin-2-one] it was 180 °C.
As for `CC(C)CN(C)Cc1cnnn1-c1cccc(C2=Nc3cc(N(C)C(C)C)c(Cl)cc3NC(=O)C2)c1` [Example 149, 8-Chloro-4-(3-{5-[(isobutyl-methyl-amino)-methyl]-[1,2,3]triazol-1-yl}-phenyl)-7-(isopropyl-methyl-amino)-1,3-dihydro-benzo[b][1,4]diazepin-2-one], the figure is 182 °C.
On to `CC(C)N(C)c1cc2c(cc1C(F)(F)F)NC(=O)CC(c1cccc(-n3nncc3CN(C)C)c1)=N2` [Example 150, 4-[3-(5-Dimethylaminomethyl-[1,2,3]triazol-1-yl)-phenyl]-7-(isopropyl-methyl-amino)-8-trifluoromethyl-1,3-dihydro-benzo[b][1,4]diazepin-2-one], for which the melting point is 197 °C.
Take `CC(C)N(C)c1cc2c(cc1C(F)(F)F)NC(=O)CC(c1cccc(-n3nncc3CN3CCCC3)c1)=N2` [Example 151, 7-(Isopropyl-methyl-amino)-4-[3-(5-pyrrolidin-1-ylmethyl-[1,2,3]triazol-1-yl)-phenyl]-8-trifluoromethyl-1,3-dihydro-benzo[b][1,4]diazepin-2-one]: the melting point was determined as 175 °C.
In the case of `CC(C)N(C)c1cc2c(cc1C(F)(F)F)NC(=O)CC(c1cccc(-n3nncc3CNCC3CC3)c1)=N2` [Example 153, 4-(3-{5-[(Cyclopropylmethyl-amino)-methyl]-[1,2,3]triazol-1-yl}-phenyl)-7-(isopropyl-methyl-amino)-8-trifluoromethyl-1,3-dihydro-benzo[b][1,4]diazepin-2-one] it was 152 °C.
With `CC(C)N(C)c1cc2c(cc1Cl)NC(=O)CC(c1cccc(-n3nncc3CNC3CC3)c1)=N2` [Example 154, 8-Chloro-4-[3-(5-cyclopropylaminomethyl-[1,2,3]triazol-1-yl)-phenyl]-7-(isopropyl-methyl-amino)-1,3-dihydro-benzo[b][1,4]diazepin-2-one], the melting point was 144 °C.
In the case of `CC(C)NCc1cnnn1-c1cccc(C2=Nc3cc(N(C)C(C)C)c(C(F)(F)F)cc3NC(=O)C2)c1` [Example 155, 4-{3-[5-(Isopropylamino-methyl)-[1,2,3]triazol-1-yl]-phenyl}-7-(isopropyl-methyl-amino)-8-trifluoromethyl-1,3-dihydro-benzo[b][1,4]diazepin-2-one] it was 191 °C.
Compound `CC(C)CNCc1cnnn1-c1cccc(C2=Nc3cc(N(C)C(C)C)c(Cl)cc3NC(=O)C2)c1` [Example 156, 8-Chloro-4-{3-[5-(isobutylamino-methyl)-[1,2,3]triazol-1-yl]-phenyl}-7-(isopropyl-methyl-amino)-1,3-dihydro-benzo[b][1,4]-diazepin-2-one] had a melting point of 182 °C.
Compound `CC(C)N(C)c1cc2c(cc1C(F)(F)F)NC(=O)CC(c1cccc(-n3nncc3CNC3CC3)c1)=N2` [Example 157, 4-[3-(5-Cyclopropylaminomethyl-[1,2,3]triazol-1-yl)-phenyl]-7-(isopropyl-methyl-amino)-8-trifluoromethyl-1,3-dihydro-benzo[b][1,4]diazepin-2-one] registered a melting point of 178 °C.
In turn, `Cc1cc2c(cc1N(C)CC(C)C)N=C(c1cccc(-n3ncnc3CN3CCCC3)c1)CC(=O)N2` [Example 158, 7-(Isobutyl-methyl-amino)-8-methyl-4-[3-(5-pyrrolidin-1-ylmethyl-[1,2,4]triazol-1-yl)-phenyl]-1,3-dihydro-benzo[b][1,4]diazepin-2-one] returned a melting point of 164 °C.
As for `Cc1cc2c(cc1N(C)CC(C)C)N=C(c1cccc(-n3ncnc3CNC3CC3)c1)CC(=O)N2` [Example 159, 4-[3-(5-Cyclopropylaminomethyl-[1,2,4]triazol-1-yl)-phenyl]-7-(isobutyl-methyl-amino)-8-methyl-1,3-dihydro-benzo[b][1,4]diazepin-2-one], the figure is 114 °C; as for `Cc1cc(-c2cccc(C3=Nc4cc(NC(C)C)c(Cl)cc4NC(=O)C3)c2)on1` [Example 160, 8-Chloro-7-isopropylamino-4-[3-(3-methyl-isoxazol-5-yl)-phenyl]-1,3-dihydro-benzo[b][1,4]diazepin-2-one], 225 °C.
